We go through 5 compounds from patent US4412994A, “Mannich-base hydroxamic acid prodrugs, compositions and use” (INTERx Research Corporation, priority 1982, dated 1983).

This assay relates to mouse ear. In words: mouse ear assay (croton oil-induced ear inflammation, anti-inflammatory activity). Conditions: topical, 0.05 ml in acetone containing 2% croton oil on right ear; 3 hours; linear regression of data at 2×10^-2, 4×10^-2 and 8×10^-2 M; groups of 15 mice. Format: in vivo, male ddY strain mouse. The method, then: G. Van Arman, Clin. Pharm. […] Details of the mouse ear assay are as follows:
The test animal was the male ddY strain mouse (20-25 grams each). Solutions of the test compound in acetone containing 2% croton oil (i.e. a solution containing 98 parts of acetone to 2 parts of croton oil) were prepared for varying concentrations of the test compound. Then, the test animals were anesthetized and 0.05 ml of the selected test solution was applied in 0.025 ml aliquots, one each to the anterior and posterior surface of the right ear of each mouse. Three hours after application, the mice were sacrificed via ether inhalation and both ears were removed from each mouse. Then, one circular section, 8 mm in diameter, was taken from each ear using a leather punch. The increase in weight caused by the irritant was determined by subtracting the weight of the untreated left ear section from that of the right ear section. Drug effects expressed as percent inhibition were determined at each selected concentration (molarity) of each test compound according to the following equation: [formula]
Groups of 15 mice were treated at each dosage level of each test compound. The control group consisted of 30 mice. In the control group, the right ear of each mouse was treated with the croton oil/acetone solution described above but not containing test compound, while the left ear of each control mouse was untreated.
Indomethacin, indomethacin hydroxamic acid and the compounds of Examples 3, 4 and 5 were tested according to the mouse ear assay described above.
Regarding `CCN(CC)CN(O)C(=O)Cc1c(C)n(C(=O)c2ccc(Cl)cc2)c2ccc(OC)cc12` [α-[1-(4'-Chlorobenzoyl)-5-methoxy-2-methylindol-3-yl]-N-(N', N'-diethylaminomethyl)acetohydroxamic Acid], the ED50 stood at 0.041 M. In turn, `COc1ccc2c(c1)c(CC(=O)NO)c(C)n2C(=O)c1ccc(Cl)cc1` [Indomethacin hydroxamic acid, α-[1-(4'-Chlorobenzoyl)-5-methoxy-2-methylindol-3-yl]acetohydroxamicAcid] yielded an ED50 of 0.096 M. Compound `COc1ccc2c(c1)c(CC(=O)N(O)CN1CCN(C)CC1)c(C)n2C(=O)c1ccc(Cl)cc1` [α-[1-(4'-Chlorobenzoyl)-5-methoxy-2-methylindol-3-yl]-N-[(4-methylpiperazin-1-yl)methyl]acetohydroxamic Acid] came in with an ED50 of 0.027 M. For `COc1ccc2c(c1)c(CC(=O)O)c(C)n2C(=O)c1ccc(Cl)cc1` [Indomethacin, 1-(4'-Chlorobenzoyl)-5-methoxy-2-methyl-3-indolylacetic Acid, reference compound] the value was 0.061 M; for `COc1ccc2c(c1)c(CC(=O)N(O)CN1CCOCC1)c(C)n2C(=O)c1ccc(Cl)cc1` [α-[1-(4'-Chlorobenzoyl)-5-methoxy-2-methylindol-3-yl]-N-(morpholinomethyl)acetohydroxamic Acid], 0.054 M.
